How the values were obtained:
[1] = tested on: Human melanocytes; assay: Nitric oxide-induced DNA strand breaks with or without UV (pulsed field gel electrophoresis); assay type: cell-based
Method: Human melanocytes were exposed to 160 μM DETA NONOate (Alexis Corporation, Cat #430-014-M005), a reagent which spontaneously produces nitric oxide when exposed to water. Cells were exposed to NO alone, or NO plus increasing doses of UV radiation (50 and 300 J/m^2). Groups of cells were also exposed to deoxyribonucleosides of the invention before, or before and after, exposure to NO or NO+UV radiation; control groups were treated identically except for addition of deoxyribonucleosides.
DNA was extracted from cells and subjected to pulsed field gel electrophoresis to determine the incidence of DNA strand breaks.

[2] = tested on: human fibroblasts; assay: Photodynamic enhancement of DNA damage by UV plus oxybenzone, attenuation by deoxyribonucleosides (nucleoid position); assay type: cell-based; conditions: UV + 2 μM OB, no dNsides
Method: (§1) Confluent human fibroblasts in T25 flasks were washed 3 times with HBSS (Hank's Balanced Salt Solution) and incubated with vehicle or with various concentrations of oxybenzone (OB) for 2 hours. Media was aspirated and cells were covered with a 1 mm layer of HBSS and irradiated from above with UV-B (50 J/m^2). The medium was aspirated and cells were incubated for three hours with 2 mM hydroxyurea. Medium was again aspirated, and cells were trypsinized with 0.25% trypsin/EDTA. Cells were centrifuged at 4° C., resuspended in 50 microliters of HBSS and incubated at room temperature with 200 microliters of 1N NaOH for 15 minutes. DNA damage (single strand breaks) was assessed by alkaline sucrose gradient centrifugation. “Nucleoid position” in the sucrose gradient is proportional to the number of DNA single strand breaks.
(§2) Confluent human fibroblasts were exposed to 2 micromolar oxybenzone (OB), as in Example 3, prior to exposure to UV-B radiation (50 J/m^2). Different flasks of cells also were exposed to increasing concentrations of deoxyribonucleosides. Cells were processed for determination of nucleoid position in a sucrose density gradient, a measure of DNA single strand breaks.

[3] = tested on: human fibroblasts; assay: UV-induced DNA single strand breaks (nucleoid position, alkaline sucrose gradient) with oxybenzone; assay type: cell-based
Method: as §1

[4] = tested on: human fibroblasts; assay: Individual versus combined deoxyribonucleosides on photodynamically enhanced UV-induced DNA strand breaks; assay type: cell-based; conditions: UV with 2 μM oxybenzone; individual compounds 20 μM, combination 20 μM each; UV + vehicle .325
Method: as §2, with “breaks. […] Individual deoxyribonucleosides were tested at concentrations of 20 μM, and the combination of all four deoxyribonucleosides contained thymidine, deoxycytidine. deoxyadenosine and deoxyguanosine at 20 μM each.” for “breaks.”

[5] = tested on: v-Ha-ras TG.AC mice; assay: Individual deoxyribonucleosides versus combination on UV-induced tumorigenesis in v-Ha-ras TG.AC mice; assay type: in vivo, mouse; conditions: UV 1.25 kJ/m^2 on days 0, 6, 8 and 11; 4 mg/ml (each) in propylene glycol beginning 30 minutes after irradiation; vehicle 1.8
Method: Thirty v-Ha-ras TG.AC mice aged twelve weeks were shaved and subjected to ultraviolet radiation, 1.25 kJ/m^2 on days 0, 6, 8 and 11, at a dose rate of 12.5 W/m2. Mice were divided into groups of five animals each and treated, beginning 30 minutes after irradiation, with: 1. Vehicle (propylene glycol) 2.

Compound | DNA Strand Breaks [4] | Papillomas/mouse at the end of 8 weeks [5] | also measured
[N]=O [NO, Nitric oxide] |  |  | DNA Strand Breaks ([1]; NO + UV 50 J/m^2): 0.21 breaks/105 MDa; DNA Strand Breaks ([1]; NO + UV 300 J/m^2): 0.51 breaks/105 MDa; DNA Strand Breaks ([1]; NO alone (160 μM DETA NONOate)): 0.13 breaks/105 MDa
COc1ccc(C(=O)c2ccccc2)c(O)c1 [OB, oxybenzone (benzophenone-3)] |  |  | Nucleoid Position [2]: 56 mm; Nucleoid Position ([3]; UV 50 J/m^2 + 2 μM OB, 2 hours preincubation): 32 mm; Nucleoid Position ([3]; UV 50 J/m^2 + 20 μM OB): 4 mm; Nucleoid Position ([3]; UV 50 J/m^2 + 200 μM OB): 3 mm; Nucleoid position relative to non-irradiated cells ([3]; UV 50 J/m^2 + 2 micromolar OB): 10 fold
Nc1ncnc2c1ncn2[C@H]1C[C@H](O)[C@@H](CO)O1 [deoxyadenosine, Deoxyadenosine] | .17 Breaks/47 MDa | 0.67 Papillomas/mouse | 
Nc1ccn([C@H]2C[C@H](O)[C@@H](CO)O2)c(=O)n1 [deoxycytidine, Deoxycytidine] | .12 Breaks/47 MDa | 0.25 Papillomas/mouse | 
Nc1nc2c(ncn2[C@H]2C[C@H](O)[C@@H](CO)O2)c(=O)[nH]1 [deoxyguanosine, Deoxyguanosine] | .17 Breaks/47 MDa | 1.0 Papillomas/mouse | 
Cc1cn([C@H]2C[C@H](O)[C@@H](CO)O2)c(=O)[nH]c1=O [thymidine, Thymidine] | .13 Breaks/47 MDa | 1.6 Papillomas/mouse | 

Source: US6465440B2, “Antimutagenic compositions for treatment and prevention of photodamage to skin” (Wellstat Therapeutics Corporation, priority 1997, dated 2002)
